Patent US5366982A (priority 1990, dated 1994)
Read-outs that look alike come from different tables or passages of the source.

Legend:
leukotriene B4 receptors = leukotriene B4 receptors (Cavia porcellus, UniProt H0VYV8); assay: biochemical; assay type: binding, guinea-pig; details: Table XIX; guinea-pig spleen membranes, tritium-labelled LTB4; read-out: IC50 Binding (Cheng)
[1] = system: guinea-pig pulmonary parenchyma; assay: L. Parenchyma: guinea-pig pulmonary parenchyma contraction antagonism induced by LTB4 (Sirois); assay type: cell-based; details: read-out: IC50 L. Parenchyma
Protocol: Further, compounds of this invention are shown to be leukotriene B4 antagonists in the technique of guinea-pig pulmonary parenchyma contraction antagonism induced by LTB4 described by P. Sirois et al., Pharmacology, 31, 225-236 (1985). In this technique, products are active at concentrations of between about 1 to about 10,000 nM.

[2] = Cavia porcellus, Table XIX, guinea-pig pulmonary parenchyma contraction induced by LTB4

Sequence of leukotriene B4 receptors (H0VYV8 1-348): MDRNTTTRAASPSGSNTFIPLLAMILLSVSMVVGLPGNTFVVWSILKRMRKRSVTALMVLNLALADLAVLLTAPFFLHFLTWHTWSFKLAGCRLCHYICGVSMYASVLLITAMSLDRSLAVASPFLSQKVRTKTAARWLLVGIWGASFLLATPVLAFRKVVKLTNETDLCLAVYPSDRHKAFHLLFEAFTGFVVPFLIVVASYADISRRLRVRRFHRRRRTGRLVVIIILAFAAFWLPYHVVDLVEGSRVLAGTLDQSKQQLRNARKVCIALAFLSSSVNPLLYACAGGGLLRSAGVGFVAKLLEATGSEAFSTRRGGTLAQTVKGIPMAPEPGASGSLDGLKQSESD

IC50 (leukotriene B4 receptors) [nM]	IC50 [1, 2] [nM]	IC50 ([1]; Table XIX, guinea-pig pulmonary parenchyma contraction induced by LTB4) [nM]	Compound	IC50 ([1]; Cavia porcellus) [nM]
25	1300	–	O=C(O)CCCCCCOc1cc(-c2ccccc2)cc(-c2ccccc2)n1 [7-[(4,6-diphenyl-2-pyridyl)oxy]heptanoic acid]	–
40	1000	–	CC(C)(CCCCOc1cc(-c2ccccc2)cc(C(C)(C)C)n1)C(=O)O [6-[(6-ter-butyl-4-phenyl-2-pyridyl)oxy]-2,2-dimethylhexanoic acid]	–
40	> 10000	–	COC(=O)CCCCCOc1cc(-c2ccccc2)cc(-c2ccccc2)n1 [methyl 6-[(4,6-diphenyl-2-pyridyl)oxy]hexanoate]	–
30	1700	–	O=C(O)CCCCCOc1cc(-c2ccccc2)cc(-c2ccc(F)cc2)n1 [6-{[6-(4-fluorophenyl)-4-phenyl-2-pyridyl]oxy}hexanoic acid]	–
10	1000	–	CC(C)(CCCCOc1nc(-c2ccccc2)cc(-c2ccccc2)n1)C(=O)O [6-[(4,6-diphenyl-2-pyrimidyl)oxy]-2,2-dimethylhexanoic acid]	–
7	300	–	CC(C)(CCCCOc1cc(-c2ccc(F)cc2)cc(-c2ccccc2)n1)C(=O)O [2,2-dimethyl-6-{[4-(4-fluorophenyl)-6-phenyl-2-pyridyl]oxy}hexanoic acid]	–
1.7	60	–	CC(CCCCOc1cc(-c2ccc(F)cc2)cc(-c2ccccc2)n1)C(=O)O (centres unmarked) [2-methyl-6-{[4-(4-fluorophenyl)-6-phenyl-2-pyridyl]oxy}hexanoic acid]	–
10	1000	–	O=C(O)CCCCCOc1cc(-c2ccc(F)cc2)cc(-c2ccccc2F)n1 [6-{[4-(4-fluorophenyl)-6-(2-fluorophenyl)-2-pyridyl]oxy}hexanoic acid]	–
3	300	–	O=C(O)CCCCCOc1cc(-c2ccccc2)cc(-c2ccccc2)n1 [6-[(4,6-diphenyl-2-pyridyl)oxy]hexanoic acid]	–
4	10	–	CC(CCCCOc1cc(-c2ccccc2)cc(-c2ccccc2)n1)C(=O)O (centres unmarked) [2-methyl-6-[(4,6-diphenyl-2-pyridyl)oxy]hexanoic acid]	–
8	200	–	COc1cccc(-c2cc(OCCCCCC(=O)O)nc(-c3ccccc3)c2)c1 [6-{[4-(3-methoxyphenyl)-6-phenyl-2-pyridyl]oxy}hexanoic acid]	–
13	1000	–	CC(C)(CCCCOc1cc(-c2cccc(Cl)c2)cc(-c2ccccc2)n1)C(=O)O [2,2-dimethyl-6-{[4-(3-chlorophenyl)-6-phenyl-2-pyridyl]oxy}hexanoic acid]	–
4	6	–	CC(CCCCOc1cc(-c2ccccc2)cc(-c2ccccc2F)n1)C(=O)O (centres unmarked) [2-methyl-6-{[6-(2-fluorophenyl)-4-phenyl-2-pyridyl]oxy}hexanoic acid]	–
3	200	–	O=C(O)CCCCCOc1cc(-c2cccc(F)c2)cc(-c2ccccc2)n1 [6-{[4-(3-fluorophenyl)-6-phenyl-2-pyridyl]oxy}hexanoic acid]	–
15	1000	–	CC(C)(CCCCOc1cc(-c2ccccc2)cc(-c2cccs2)n1)C(=O)O [2,2-dimethyl-6-{[4-phenyl-6-(2-thienyl)-2-pyridyl]oxy}hexanoic acid]	–
4	150	–	O=C(O)CCCCCOc1cc(-c2ccccc2)cc(-c2cccc(F)c2)n1 [6-{[6-(3-fluorophenyl)-4-phenyl-2-pyridyl]oxy}hexanoic acid]	–
3	70	–	CCC(CCCCOc1cc(-c2ccccc2)cc(-c2ccccc2)n1)C(=O)O (centres unmarked) [2-ethyl-6-[(4,6-diphenyl-2-pyridyl)oxy]hexanoic acid]	–

IC50 (leukotriene B4 receptors) [nM]	IC50 [1, 2] [nM]	IC50 ([1]; Table XIX, guinea-pig pulmonary parenchyma contraction induced by LTB4) [nM]	Compound	IC50 ([1]; Cavia porcellus) [nM]
5	100	–	CC(C)(CCCCOc1cc(-c2ccccc2)cc(-c2ccsc2)n1)C(=O)O [2,2-dimethyl-6-{[4-phenyl-6-(3-thienyl)-2-pyridyl]oxy}hexanoic acid]	–
10	1	–	CC(C)(CCCCOc1cc(-c2ccc(N)cc2)cc(-c2ccccc2)n1)C(=O)O [2,2-dimethyl-6-{[4-(4-aminophenyl)-6-phenyl-2-pyridyl]oxy}hexanoic acid]	–
7	20	–	CC(C)(CCCCOc1cc(-c2ccccc2)cc(-c2ccccc2)n1)c1nnn[nH]1 [5-{1,1-dimethyl-5-[(4,6-diphenyl-2-pyridyl)oxy]pentyl}-[1H]-tetrazole]	–
350	10000	–	O=C(O)c1ccc(COc2cc(-c3ccccc3)cc(-c3ccccc3)n2)cc1 [4-[(4,6-diphenyl-2-pyridyl)oxymethyl]benzoic acid]	–
2	30	–	COc1cccc(-c2cc(OCCCCC(C)(C)C(=O)O)nc(-c3ccccc3)c2)c1 [2,2-dimethyl-6-{[4-(3-methoxyphenyl)-6-phenyl-2-pyridyl]oxy}hexanoic acid]	–
15	100	–	Cc1ccc(-c2cc(OCCCCCC(=O)O)nc(-c3ccccc3)c2)cc1 [6-{[4-(4-methylphenyl)-6-phenyl-2-pyridyl]oxy}hexanoic acid]	–
50	300	–	O=C(O)CCCCCOc1cc(-c2ccccc2)cc(-c2cccs2)n1 [6-{[4-phenyl-6-(2-thienyl)-2-pyridyl]oxy}hexanoic acid]	–
15	1100	–	COc1ccc(-c2cc(OCCCCCC(=O)O)nc(-c3ccccc3)c2)cc1 [6-{[4-(4-methoxyphenyl)-6-phenyl-2-pyridyl]oxy}hexanoic acid]	–
50	170	–	COc1ccc(-c2cc(OCCCCC(C)(C)C(=O)O)nc(-c3ccccc3)c2)cc1 [2,2-dimethyl-6-{[4-(4-methoxyphenyl)-6-phenyl-2-pyridyl]oxy}hexanoic acid]	–
3	60	–	O=C(O)CCCCCOc1cc(-c2ccccc2)cc(-c2ccccc2F)n1 [6-{[6-(2-fluorophenyl)-4-phenyl-2-pyridyl]oxy}hexanoic acid]	–
1	5	–	O=C(O)CCCCCOc1cc(-c2ccc3c(c2)OCO3)cc(-c2ccccc2)n1 [6-{[4-(3,4-methylenedioxyphenyl)-6-phenyl-2-pyridyl]oxy}hexanoic acid]	–
5	80	–	CC(C)(CCCCOc1cc(-c2ccccc2)cc(-c2ccccc2F)n1)C(=O)O [2,2-dimethyl-6-{[6-(2-fluorophenyl)-4-phenyl-2-pyridyl]oxy}hexanoic acid]	–
50	2000	–	O=C(O)CCCCOc1cc(-c2ccccc2)cc(-c2ccccc2)n1 [5-[(4,6-diphenyl-2-pyridyl)oxy]pentanoic acid]	–
7	2.5	–	CC(CCCCOc1cc(-c2ccc3c(c2)OCO3)cc(-c2ccccc2)n1)C(=O)O (centres unmarked) [2-methyl-6-{[4-(3,4-methylenedioxyphenyl)-6-phenyl-2-pyridyl]oxy}hexanoic acid]	–
4	–	200	6-[(6-cyclopropyl-5-phenyl-2-pyridyl)oxy]-2,2-dimethylhexanoic acid	–
10	3000	–	CSc1ccc(-c2cc(OCCCCCC(=O)O)nc(-c3ccccc3)c2)cc1 [6-{[4-(4-methylthiophenyl)-6-phenyl-2-pyridyl]oxy}hexanoic acid]	–

Compound	IC50 (leukotriene B4 receptors) [nM]	IC50 [1, 2] [nM]	IC50 ([1]; Table XIX, guinea-pig pulmonary parenchyma contraction induced by LTB4) [nM]	IC50 ([1]; Cavia porcellus) [nM]
O=C(O)CCCCCOc1cc(-c2ccccc2)cc(-c2ccccc2Cl)n1	1.8	–	–	200
